Measured values: patent publication US11622950B2

Tests used:
[1] = system: human H460 NSCLC cells; experiment: Oral anti-tumor efficacy in human H460 NSCLC xenografts in mice; assay type: in vivo, CD1-Nu/Nu female mice; conditions: H460 xenograft; oral 100 mg/kg on day 8, 15, 22, 29; versus 5% dextrose or untreated
Protocol: Human H460 NSCLC cells were obtained from American Type Cell Culture (ATCC) (catalog no. HTB-177, Manassas, Va.). These cells tested negative for viral contamination using the Mouse Antibody Production (MAP) test, performed by Charles River Labs Molecular Division, upon the receipt of the tumor cells from ATCC. The tumor cells were maintained at […] in a humidified 5% CO2 atmosphere in T225 tissue culture flasks containing 50 mL of Roswell Park Memorial Institute (RPMI)-1640 solution with 10% Fetal Bovine Serum (FBS) and 2 mM L-glutamine. Cells were split at a ratio of 1:10 every 2-3 days by trypsinization and resuspended in fresh medium in a new flask. Cells were harvested for experiments in the same way at 70-90% confluency.
CD1-Nu/Nu female mice, ˜4-6 weeks old were obtained from Charles River Laboratories. Mice were housed 5 to a cage in a micro-isolator room in the Department of Animal Laboratory Research of New York State University (SUNY) at Stony Brook. Light-dark cycles were 12 h each daily, with light from 7 a.m. to 7 p.m. […]
An acclimation period of 7 days was allowed between the arrival of the animal at the study site before tumor inoculation and experimentation. […] Tumor dimensions (length and width) were measured daily before, during and after treatment (using Vernier calipers) and the tumor volume was calculated using the prolate ellipsoid formula: (length×width^2)/2. […]

[2] = system: BxPC3 pancreatic cancer cells; experiment: Oral anti-tumor efficacy in human BxPC3 pancreatic cancer xenografts in mice; assay type: in vivo, CD-1 nude mice; conditions: BxPC3 xenograft; oral dose of 100 mg/week for 4 weeks; versus 5% dextrose or untreated
Protocol: An acclimation period of 7 days was allowed between the arrival of the animal at the study site before tumor inoculation and experimentation. Mice were inoculated subcutaneously (SC) in the right flank with 2×10^6 human H460 NSCLC or BxPC3 pancreatic cancer cells that were suspended in 0.1 mL of Dulbeco's Phosphate Buffered Salt (PBS) solution using a 1 cc syringe with a 27-⅝ gauge needle. Tumor dimensions (length and width) were measured daily before, during and after treatment (using Vernier calipers) and the tumor volume was calculated using the prolate ellipsoid formula: (length×width^2)/2. Treatment with test or control articles began 8 days post tumor cell implantation when the tumor was approximately 300 mm^3.
A similar study was conducted in CD-1 nude mice (n=9) inoculated with 2×10^6 BxPC-3 cells. The study was initiated when tumors reached an average size of 150 mm^3 (day 0) and CPI-613 was administered at an oral dose of 100 mg/week for 4 weeks. A comparator arm (n=9) was conducted with IP treatment at a weekly dose of 25 mg/kg.

[3] = Clinical study of CPI-613 Drug Compound with gemcitabine hydrochloride and nab-paclitaxel: tolerance; assay type: in vivo; conditions: 500 mg/m^2 with Gemcitabine+nab-paclitaxel on days 1 and 15, human patients
From the text: Human patients suffering from locally advanced or metastatic pancreatic cancer are to be administered 6,8-bis(benzylsulfanyl)octanoic acid triethanolamine ion pair in combination with gemcitabine hydrochloride and nab-paclitaxel. Experimental procedures are described below.
[…] CPI-613 Drug Compound is 6,8-bis(benzylsulfanyl)octanoic acid triethanolamine ion pair.

Compound | tumor growth [1] | tumor growth [2] | tolerance of regimen [3]
O=C(O)CCCCC(CCSCc1ccccc1)SCc1ccccc1 (stereo not drawn) [6,8-bis(benzylsulfanyl)octanoic acid] | grew much more slowly | especially pronounced | –
O=C(O)CCCCC(CCSCc1ccccc1)SCc1ccccc1.OCCN(CCO)CCO (stereo not drawn) [CPI-613 Drug Compound, 6,8-bis(benzylsulfanyl)octanoic acid triethanolamine ion pair] | – | – | excellent tolerance
